Test results from PubChem BioAssay (NCI).
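Where inhibition never reached the appropriate level, the endpoint shown equals the highest concentration tested. Otherwise, values were interpolated linearly from a five-concentration, 48-hour dose response in 96-well plates. The concentration for 50% growth inhibition is given as GI50. TGI is the concentration that stops growth completely.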

How the values were obtained:
Test in all cases: inhibition of tumour cell growth, NCI panel, 48 h
EKVX NSCLC = system: EKVX NSCLC
NCI-H23 lung = system: NCI-H23 lung
CAKI-1 renal = system: CAKI-1 renal
SNB-75 CNS = system: SNB-75 CNS
U251 CNS = system: U251 CNS
OVCAR-4 ovarian = system: OVCAR-4 ovarian
LOX IMVI melanoma = system: LOX IMVI melanoma
K-562 leukemia = system: K-562 leukemia
RPMI-8226 leukemia = system: RPMI-8226 leukemia
SR leukemia = system: SR leukemia

| SMILES | GI50 (EKVX NSCLC) | TGI (EKVX NSCLC) | GI50 (NCI-H23 lung) | TGI (NCI-H23 lung) | GI50 (CAKI-1 renal) | GI50 (SNB-75 CNS) | TGI (SNB-75 CNS) | GI50 (U251 CNS) | TGI (U251 CNS) | GI50 (OVCAR-4 ovarian) | TGI (OVCAR-4 ovarian) | GI50 (LOX IMVI melanoma) | TGI (LOX IMVI melanoma) | GI50 (K-562 leukemia) | TGI (K-562 leukemia) | GI50 (RPMI-8226 leukemia) | TGI (RPMI-8226 leukemia) | TGI (CAKI-1 renal) | TGI (SR leukemia) |
| --- | --- | --- | --- | --- | --- | --- | --- | --- | --- | --- | --- | --- | --- | --- | --- | --- | --- | --- | --- |
| C[C@H]1CCC/C=C/[C@@H]2C[C@H](O)C[C@H]2[C@H](O)[C@H](S(=O)c2ccc(O)cc2)CC(=O)O1 (some centres not stated) | 0.0824 µM | > 36.9 µM | 0.0273 µM | 0.143 µM | 0.114 µM | < 0.018 µM | > 100 µM | 0.0403 µM | > 77.4 µM | 0.0231 µM | 0.978 µM | 0.0208 µM | 0.0533 µM | 0.0994 µM | > 100 µM | 0.0922 µM | 2.52 µM |  |  |
| O=C1C(=O)c2cc([N+](=O)[O-])ccc2-c2ccccc21 | 1.62 µM | 3.16 µM | 1.65 µM | 3.29 µM | 1.67 µM | 1.47 µM | 2.8 µM | 1.35 µM | 2.7 µM | 1.25 µM | 2.66 µM | 1.22 µM | 2.48 µM |  |  | 2.21 µM | 4.7 µM | 3.21 µM |  |
| CN1C(=O)n2c(nc3ccccc32)C(N=[N+]=[N-])(N=[N+]=[N-])C1=O (configuration not stated) |  | > 100 µM |  | > 100 µM |  |  | > 100 µM |  | > 100 µM |  | > 100 µM |  | > 100 µM |  | > 100 µM |  | > 100 µM | > 100 µM |  |
| CCOC(=O)/C(=C/c1ccc(OC)c(OC)c1)C(=O)c1ccccc1 |  | 67.4 µM |  | 35.6 µM |  |  | 28.5 µM |  | 65 µM |  | 60.3 µM |  |  |  | > 100 µM |  | 39.1 µM | 31.8 µM |  |
| CN1CCC23c4c5ccc(O)c4OC2C(=NN=C2CCC4(O)C6Cc7ccc(O)c8c7C4(CCN6C)C2O8)CCC3(O)C1C5 (configuration not stated) |  | > 100 µM |  | > 100 µM |  |  | > 100 µM |  | > 100 µM |  | > 100 µM |  | > 100 µM |  | > 100 µM |  | > 100 µM | > 100 µM |  |
| C/C(CC(=O)CCCC(=O)Nc1ccc(Cl)cc1Cl)=N/NC(=O)CC#N |  | > 100 µM |  | > 100 µM |  |  | > 100 µM |  | > 100 µM |  | > 100 µM |  | > 100 µM |  | > 100 µM |  | > 100 µM | > 100 µM |  |
| CC(=O)[O-].CC(=O)[O-].[Mn+2].c1ccc(/C(=N\Nc2ccccn2)c2ccccn2)cc1 | 0.0187 µM | 19.9 µM | 0.00784 µM | 16.7 µM | 0.0393 µM |  | 17.7 µM |  | 8.15 µM |  | 24.5 µM |  | 2.06 µM | 0.00305 µM |  |  | 7.04 µM | 8.47 µM |  |
| CC1(C)CCC(=O)c2c(O)ccc(O)c21 |  | > 100 µM |  | > 100 µM |  |  | 98.3 µM |  | > 100 µM |  | > 100 µM |  |  |  | > 100 µM |  | > 100 µM | > 100 µM |  |
| COc1cccc(/C=C(/C(=O)O)c2cc(OC)c(OC)c(OC)c2)c1 |  | > 100 µM |  |  |  |  | > 100 µM |  | > 100 µM |  | > 100 µM |  | > 100 µM |  | > 100 µM |  | > 100 µM | > 100 µM |  |
| CCCCCCCCN(CCCCCCCC)C(=N)c1ccnc2ccccc12 | 1.28 µM | 2.68 µM | 1.49 µM | 3.03 µM | 1.17 µM | 1.01 µM | 2.36 µM | 1.23 µM | 2.58 µM | 1.2 µM | 2.6 µM |  |  |  |  |  |  | 2.44 µM |  |
| CCc1ccc(C2=C/C(=C/c3ccc(Cl)cc3)C(=O)N2CCc2ccc(S(N)(=O)=O)cc2)cc1 | 2.62 µM | 10 µM | 2.45 µM | 7.46 µM | 2.91 µM | 2.79 µM | 12.9 µM | 2 µM | 4.2 µM | 2.56 µM | 8.03 µM |  |  | 2.81 µM | > 100 µM | 2.28 µM | 6.14 µM | 12.4 µM |  |
| COc1ccc2[nH]c3c4c(c5cc(C(C)(C)C)ccc5c3c2c1)C(=O)N(c1ccccc1)C4=O |  | > 100 µM |  | > 100 µM |  |  | > 100 µM |  | > 100 µM |  | > 100 µM |  | > 100 µM |  | > 100 µM |  | > 100 µM | > 100 µM |  |
| CC1(C)CC23C(=O)N(c4ccccc4)C(=Nc4ccccc4)NC2=CC(C#N)=C(C#N)C3O1 (configuration not stated) |  | > 100 µM |  | > 100 µM |  |  | > 100 µM |  | > 100 µM |  | > 100 µM |  | > 100 µM |  | > 100 µM |  | > 100 µM | > 100 µM |  |
| CC(=O)CC(=O)N(CCN(C(=O)CC(C)=O)c1ccccc1)c1ccccc1 |  | > 100 µM |  | > 100 µM |  |  | > 100 µM |  | > 100 µM |  | > 100 µM |  | > 100 µM |  | > 100 µM |  | > 100 µM | > 100 µM |  |
| CCCCCCCCCOC(=S)NC |  | 51.6 µM |  | 34.6 µM |  |  | 73.7 µM |  | 31.5 µM |  | 42.2 µM |  | 35.5 µM |  | 51.1 µM |  | 48.4 µM | 43.1 µM |  |
| CON(C)C(=O)C(Cc1ccccc1)NC(=O)OC(C)(C)C (configuration not stated) |  | > 100 µM |  | > 100 µM |  |  | > 100 µM |  | > 100 µM |  |  |  |  |  | > 100 µM |  | > 100 µM |  | > 100 µM |
